Assay results as given in patent US20080318789A1, “Seed germination acceleration” (priority 2007, published 2008).

System: canola (cv. Westar) seed
Experiment: Petri plate germination study of treated canola seed at 6° C.
Format: in vivo
Settings: petri plates at 6° C., n = 3 plates of 15 seeds; for Percent germinated Day 5: day 5 after treatment; for Percent germinated Day 6: day 6 after treatment; for Percent germinated Day 7: day 7 after treatment
Procedure: For all seed treatments, 1 ppm active ingredient refers to 1 microgram active ingredient per gram of seed. For these studies, GA3, GA4/7, 6BA or CPPU were each dispensed into a 15 ml centrifuge tube, and 2.5 ml of de-ionized water was then added to each tube. The solution was mixed on a vortex mixer and 0.015 ml of this solution was then placed in another 15 ml. centrifuge tube along with 0.6 grams of canola seeds (cv. Westar). Seeds were mixed by rotating 360° on a Labquake Rotisserie for 30 minutes. To simulate commercial seed treatments, the amount of solutions was just sufficient to wet the seeds. After treating, the seeds were placed in weigh boats for overnight drying. Petri plate studies: Each standard petri plate (100 mm×50 mm) contained 1 blue Anchor germination circle (3¼ inches in diameter) drenched with 8 ml of de-ionized water cooled to 6° C., Each treatment consisted of 3 petri plates of 15 seeds each. After plating, the petri plates were placed in a Nalgene plastic container pre-cooled to 6° C. The plastic container containing the petri plates was placed in a growth chamber at 6° C. with a 16-hour light cycle for the duration of the study. Seeds were visually observed daily for germination as determined by emergence of root from the seed coat. Canola seeds (cv. Westar) were treated with solutions containing GA4/7, GA3, 6BA, or CPPU. The solutions were sufficient only to wet the seeds. The amount of applied GA4/7 ([…]), GA3 (0.5, 5 or 50 ppm), 6BA (5 or 50 ppm), or CPPU (5 or 50 ppm) is expressed as ppm or micrograms of compound per gram of seed.

SMILES	Percent germinated Day 5 (seed treatment 5 ppm) [%]	Percent germinated Day 6 (seed treatment 5 ppm) [%]	Percent germinated Day 7 (seed treatment 5 ppm) [%]	Percent germinated Day 5 (seed treatment 50 ppm) [%]	Percent germinated Day 6 (seed treatment 50 ppm) [%]	Percent germinated Day 7 (seed treatment 50 ppm) [%]	Percent germinated Day 5 (seed treatment 0.5 ppm) [%]	Percent germinated Day 6 (seed treatment 0.5 ppm) [%]	Percent germinated Day 7 (seed treatment 0.5 ppm) [%]
c1ccc(CNc2ncnc3nc[nH]c23)cc1 [6BA]	0	0	0	0	0.3	0.3	–	–	–
O=C(Nc1ccccc1)Nc1ccnc(Cl)c1 [CPPU, 1-(2-chloro-4-pyridyl)-3-phenylurea]	0	0	0.3	0	0	0	–	–	–
C=C1C[C@]23C[C@@]1(O)CC[C@H]2[C@@]12C=C[C@H](O)[C@@](C)(C(=O)O1)[C@H]2[C@@H]3C(=O)O [GA3, (1α,2β,4aα,4bβ,10β)-2,4-a,7-trihydroxy-1-methyl-8-methylenegibb-3-ene-1,10-dicarboxylic acid 1,4a-lactone]	0	0.3	0.7	0.3	2.7	5.0	0	0.3	0.3
